Test results as given in PubChem BioAssay AID330 (DTP/NCI, 2004).
Where “and” joins values, the source holds several entries; their conditions need not be identical. Equal entries are not always repeated. Inconclusive results and toxic doses are left out. Rule for the calls: active = survival T/C of 150% or more; inactive = T/C below 125% in these data.

System: P388 leukemia ip, CD2F1 mice, survival T/C
Assay: NCI In Vivo Anticancer Drug Screen. Data for tumor model P388 Leukemia (intraperitoneal) in CD2F1 (CDF1) mice
Settings: endpoint: median survival time, higher = longer survival
In short: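 Mice carrying the transplanted tumor received test compound or vehicle. Survival was recorded in each group, and the value is the treated-group measurement divided by that of the vehicle-treated control group.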

[1] = dose: 12.5 mg/kg/injection, schedule: Q01DX009 (ip), vehicle: Klucel (hydroxypropylcellulose) (HPC)
[2] = dose: 25.0 mg/kg/injection, schedule: Q01DX009 (ip), vehicle: Klucel (hydroxypropylcellulose) (HPC)
[3] = dose: 50.0 mg/kg/injection, schedule: Q01DX009 (ip), vehicle: Klucel (hydroxypropylcellulose) (HPC)
[4] = dose: 60.0 mg/kg/injection, schedule: Q01DX005 (ip), vehicle: saline with Tween-80
[5] = dose: 120.0 mg/kg/injection, schedule: Q01DX005 (ip), vehicle: saline with Tween-80
[6] = dose: 50.0 mg/kg/injection, schedule: Q01DX009 (ip), vehicle: saline with Tween-80
[7] = dose: 100.0 mg/kg/injection, schedule: Q01DX009 (ip), vehicle: saline with Tween-80

Measured: T/C

NC1=NC(=O)C(c2ccccc2)S1 (centres undefined)
inactive: [1] 103 % of control | [2] 99 % of control | [3] 113 % of control | dose: 100.0 mg/kg/injection, schedule: Q01DX009 (ip), vehicle: Klucel (hydroxypropylcellulose) (HPC) 105 % of control

C=C[C@]1(C)C[C@@H](OC(=O)CO)[C@@]2(C)[C@H](C)CC[C@]3(CCC(=O)[C@H]32)[C@@H](C)[C@@H]1O
inactive: [1] 101 % of control | [2] 97 % of control | [3] 101 % of control and 108 % of control and 94 % of control | dose: 150.0 mg/kg/injection, schedule: Q01DX009 (ip), vehicle: Klucel (hydroxypropylcellulose) (HPC) 100 % of control and 95 % of control | dose: 200.0 mg/kg/injection, schedule: Q01DX009 (ip), vehicle: Klucel (hydroxypropylcellulose) (HPC) 104 % of control and 107 % of control | dose: 400.0 mg/kg/injection, schedule: Q01DX009 (ip), vehicle: Klucel (hydroxypropylcellulose) (HPC) 107 % of control

CCCN(CCC)c1nnc([N+](=O)[O-])s1
inactive: dose: 50.0 mg/kg/injection, schedule: Q01DX001 (ip), vehicle: other 104 % of control | dose: 100.0 mg/kg/injection, schedule: Q01DX001 (ip), vehicle: other 100 % of control | dose: 200.0 mg/kg/injection, schedule: Q01DX001 (ip), vehicle: other 104 % of control

O=S(=O)(Cc1cccs1)c1ncc(Br)cn1
inactive: dose: 12.5 mg/kg/injection, schedule: Q01DX005 (ip), vehicle: Klucel (hydroxypropylcellulose) (HPC) 106 % of control | dose: 25.0 mg/kg/injection, schedule: Q01DX005 (ip), vehicle: Klucel (hydroxypropylcellulose) (HPC) 106 % of control | dose: 50.0 mg/kg/injection, schedule: Q01DX005 (ip), vehicle: Klucel (hydroxypropylcellulose) (HPC) 111 % of control and 113 % of control | dose: 100.0 mg/kg/injection, schedule: Q01DX005 (ip), vehicle: Klucel (hydroxypropylcellulose) (HPC) 117 % of control

COc1ccc2ccc3ccc(OC)nc3c2n1
inactive: [4] 92 % of control | [5] 95 % of control | dose: 240.0 mg/kg/injection, schedule: Q01DX005 (ip), vehicle: saline with Tween-80 108 % of control

O=S(=O)(O)SCCN1CCCCC1
inactive: dose: 12.5 mg/kg/injection, schedule: Q01DX009 (ip), vehicle: saline 110 % of control | dose: 25.0 mg/kg/injection, schedule: Q01DX009 (ip), vehicle: saline 100 % of control | dose: 50.0 mg/kg/injection, schedule: Q01DX009 (ip), vehicle: saline 100 % of control

COC1(OC)/C(=N/NS(=O)(=O)c2ccc(C)cc2)C2CC1C1CC21 (centres undefined)
inactive: dose: 25.0 mg/kg/injection, schedule: Q01DX009 (ip), vehicle: saline with Tween-80 98 % of control | [6] 96 % of control | [7] 96 % of control

Cc1ccc(OP(=O)(Oc2ccc(C)cc2)Oc2ccc(C)cc2)cc1.Cc1ccc(OP(=O)(Oc2ccc(C)cc2)Oc2ccc(C)cc2)cc1.[Cl][Ni][Cl]
inactive: dose: 12.5 mg/kg/injection, schedule: Q04DX003 (ip), vehicle: Klucel (hydroxypropylcellulose) (HPC) 102 % of control | dose: 25.0 mg/kg/injection, schedule: Q04DX003 (ip), vehicle: Klucel (hydroxypropylcellulose) (HPC) 100 % of control and 109 % of control and 114 % of control | dose: 50.0 mg/kg/injection, schedule: Q04DX003 (ip), vehicle: Klucel (hydroxypropylcellulose) (HPC) 100 % of control and 102 % of control

Cc1cc(Cl)ccc1NC(=O)NC(C)(C)COC(=O)Nc1cccc(Cl)c1
inactive: dose: 15.0 mg/kg/injection, schedule: Q01DX005 (ip), vehicle: saline with Tween-80 99 % of control | dose: 30.0 mg/kg/injection, schedule: Q01DX005 (ip), vehicle: saline with Tween-80 94 % of control | [4] 90 % of control | [5] 86 % of control

COc1ccc2nccc(NCCCN3CCN(CCCNc4ccnc5ccc(OC)cc45)CC3)c2c1
inactive: dose: 3.75 mg/kg/injection, schedule: Q01DX005 (ip), vehicle: water 104 % of control | dose: 7.5 mg/kg/injection, schedule: Q01DX005 (ip), vehicle: water 107 % of control | dose: 15.0 mg/kg/injection, schedule: Q01DX005 (ip), vehicle: water 99 % of control

O=S(=O)(OCCCl)c1c(F)c(F)c(F)c(F)c1F
inactive: dose: 3.12 mg/kg/injection, schedule: Q01DX009 (ip), vehicle: saline with Tween-80 103 % of control | dose: 6.25 mg/kg/injection, schedule: Q01DX009 (ip), vehicle: saline with Tween-80 109 % of control | dose: 12.5 mg/kg/injection, schedule: Q01DX009 (ip), vehicle: saline with Tween-80 110 % of control

Cn1c(CN(CCN(Cc2nc3ccccc3n2C)Cc2nc3ccccc3n2C)Cc2nc3ccccc3n2C)nc2ccccc21
inactive: dose: 50.0 mg/kg/injection, schedule: Q01DX005 (ip), vehicle: saline with Tween-80 100 % of control | dose: 100.0 mg/kg/injection, schedule: Q01DX005 (ip), vehicle: saline with Tween-80 96 % of control | dose: 200.0 mg/kg/injection, schedule: Q01DX005 (ip), vehicle: saline with Tween-80 101 % of control

CC(C)NCC(O)CC(c1ccccc1)c1ccccc1 (centres undefined)
inactive: [6] 95 % of control | [7] 111 % of control

COc1ccc(CCN2C(=O)CSC2=S)cc1OC
inactive: [7] 100 % of control | dose: 100.0 mg/kg/injection, schedule: Q04DX003 (ip), vehicle: saline with Tween-80 90 % of control | dose: 200.0 mg/kg/injection, schedule: Q01DX009 (ip), vehicle: saline with Tween-80 90 % of control | dose: 200.0 mg/kg/injection, schedule: Q04DX003 (ip), vehicle: saline with Tween-80 90 % of control | dose: 400.0 mg/kg/injection, schedule: Q04DX003 (ip), vehicle: saline with Tween-80 90 % of control
